Measured values reported in EP2664616A1, “Hydantoin and thiohydantoin derivatives as antiviral drugs” (priority 2012, dated 2013).

Tested on: HCV replicon Luc Neo ET
Assay: HCV replication inhibition assay (replicon assay, luciferase reporter)
Format: cell-based
Details: Hepatitis C virus; Huh-7 cell lines containing HCV replicon Luc Neo ET; 72 hours with compound; 1 % DMSO; firefly luciferase reporter; concentration that produces 50 % of replication inhibition; read-out: EC50 Replicon LucneoET
Method: The compounds according to the present invention were tested for their ability to inhibit HCV replication as follows:
Huh-7 cell lines containing HCV replicon Luc Neo ET (Reblikon) were maintained in DMEM supplemented with 10% SVF, 2 mM glutamine, and 1 X NEAA, 100 U / ml penicillin, and 100 µg / ml streptomycine. Cells were maintained in medium supplemented with 0.5 mg/ml G418, at 37°C and 5% CO2 in a humidified atmosphere. Cells were dissociated at sub confluence with trypsin EDTA 1X.
Replicon Luc Neo ET is bicistronic expression constructs (Lohmann et al, 1999, Science 285, 110-113). In brief, the structural genes of the HCV genome were replaced by heterologous sequences; the gene encoding the neomycin phosphotransferase (NPT) and the internal ribosome entry site (IRES) of the encephalomyocarditis virus (EMCV). The bicistronic construct is therefore composed of the following elements: HCV-IRES nucleotides 1-389 for Luc Neo ET, the NPT gene, the EMCV-IRES directing translation of downstream HCV sequences from NS2 or NS3 up to the authentic 3' end of the genome. HCV Polyprotein of Luc Neo ET replicon harbours the cell culture adaptive mutations E1202G, T1280I, K1846T. G418-resistance is only possible with cells containing high amounts of replicon.
Cells were dissociated the day before addition of compounds and seeded in 96 well-plates at a final concentration of 27 777.77 cells.ml^-1.cm^-2 in 90µl final volume of culture medium per well and were maintained at 37°C and 5% CO2 in a humidified atmosphere for 24 hours. 10 µl of compounds to be tested were added 24 hours after seeding. Final concentration of DMSO was 1 %. Cells were incubated in the presence of compounds for 72 hours after which expression of firefly luciferase reporter gene was quantified. Briefly, culture medium was removed and cells were lysed by addition of 100 µl of lysis buffer containing 125 mM Tris Phosphate ph 7.8, 10 mM EDTA, 5 mM DTT, 50 % glycerol and 5 % Triton. Plates were vortexed 10 min at 1300 rpm. 100µl of luciferin solution 1X were added to each well. Luciferin solution contained 40 mM Tris Phosphate ph 7.8, 0.2 mM EDTA, 67 mM DTT, 2.14 mM MgCl2, 5.4 mM MgSO4, 4.7 x 10^-4 M luciferin, 5.3 x 10^-4 M ATP and 2.7 x 10^-4 M Acetyl co enzyme A. Luminescence was immediately measured with Berthold Microlumat Plus LB 96V luminometer with an integration of 1 sec. Inhibition was calculated using the formula: % inhibition = 1-[(RLUsample-RLUbackground)/(RLUsignal-RLUbackground)].
The Table 1 below illustrates data on the biological activity of compounds of the present invention. Results are expressed as EC50 which is the concentration that produces 50 % of replication inhibition. Table 1. HCV replication inhibition assay

CN(C)c1ccc(NC(=O)CC2C(=O)N(c3ccc(F)cc3)C(=S)N2CCc2cccs2)cc1 (stereo not shown) [Example 48, N-[4-(dimethylamino)phenyl]-2-[1-(4-fluorophenyl)-5-oxo-2-sulfanylidene-3-[2-(thiophen-2-yl)ethyl]imidazolidin-4-yl]acetamide]
EC50: < 500 nM

CN(C)c1ccc(CCN2C(=O)N(c3ccc(F)cc3)C(=O)C2CC(=O)Nc2ccc(N(C)C)cc2)cc1 (stereo not shown) [Example 49, N-[4-(dimethylamino)phenyl]-2-(3-{2-[4-(dimethylamino)phenyl]ethyl}-1-(4-fluorophenyl)-2,5-dioxoimidazolidin-4-yl)acetamide]
EC50: < 500 nM

COc1ccc(CCN2C(=S)N(c3ccccc3)C(=O)C2CC(=O)Nc2ccc(N(C)C)cc2)cc1 (stereo not shown) [Example 51, N-[4-(dimethylamino)phenyl]-2-{3-[2-(4-methoxyphenyl)ethyl]-5-oxo-1-phenyl-2-sulfanylideneimidazolidin-4-yl}acetamide]
EC50: < 500 nM

COc1ccc(NC(=O)CC2C(=O)N(c3ccc(F)cc3)C(=S)N2CCc2ccc(N3CCOCC3)cc2)cc1 (stereo not shown) [Example 52, 2-[1-(4-fluorophenyl)-3-{2-[4-(morpholin-4-yl)phenyl]ethyl}-5-oxo-2-sulfanylideneimidazolidin-4-yl]-N-(4-methoxyphenyl)acetamide]
EC50: < 500 nM

COCCOc1ccc(NC(=O)CC2C(=O)N(c3ccc(F)cc3)C(=S)N2CCc2ccc(OC)cc2)cc1 (stereo not shown) [Example 53, 2-[1-(4-fluorophenyl)-3-[2-(4-methoxyphenyl)ethyl]-5-oxo-2-sulfanylideneimidazolidin-4-yl]-N-[4-(2-methoxyethoxy)phenyl]acetamide]
EC50: < 500 nM

COc1ccc(CCN2C(=S)N(c3ccc(F)cc3)C(=O)C2CC(=O)Nc2ccc(OC(C)C)cc2)cc1 (stereo not shown) [Example 54, 2-[1-(4-fluorophenyl)-3-[2-(4-methoxyphenyl)ethyl]-5-oxo-2-sulfanylideneimidazolidin-4-yl]-N-[4-(propan-2-yloxy)phenyl]acetamide]
EC50: < 500 nM

COc1ccc(CCN2C(=S)N(c3ccncc3)C(=O)C2CC(=O)Nc2ccc(OC)cc2)cc1 (stereo not shown) [Example 55, N-(4-methoxyphenyl)-2-{3-[2-(4-methoxyphenyl)ethyl]-5-oxo-1-(pyridin-4-yl)-2-sulfanylideneimidazolidin-4-yl}acetamide]
EC50: < 5000 nM

O=C(CC1C(=O)N(c2ccccc2)C(=S)N1CCc1ccc(Cl)cc1)Nc1ccccn1 (stereo not shown) [Example 57, 2-{3-[2-(4-chlorophenyl)ethyl]-5-oxo-1-phenyl-2-sulfanylideneimidazolidin-4-yl}-N-(pyridin-2-yl)acetamide]
EC50: < 500 nM

COc1ccc(NC(=O)CC2C(=O)N(c3ccccc3)C(=S)N2CCc2ccc(Cl)cc2)cn1 (stereo not shown) [Example 59, 2-{3-[2-(4-chlorophenyl)ethyl]-5-oxo-1-phenyl-2-sulfanylideneimidazolidin-4-yl}-N-(6-methoxypyridin-3-yl)acetamide]
EC50: < 5000 nM

COc1ccc(NC(=O)CC2C(=O)N(c3ccccc3)C(=S)N2CCc2ccc(Cl)cc2)nc1 (stereo not shown) [Example 61, 2-{3-[2-(4-chlorophenyl)ethyl]-5-oxo-1-phenyl-2-sulfanylideneimidazolidin-4-yl}-N-(5-methoxypyridin-2-yl)acetamide]
EC50: < 500 nM

O=C(CC1C(=O)N(c2ccccc2)C(=S)N1CCc1ccc(Cl)cc1)Nc1ccon1 (stereo not shown) [Example 64, 2-{3-[2-(4-chlorophenyl)ethyl]-5-oxo-1-phenyl-2-sulfanylideneimidazolidin-4-yl}-N-(1,2-oxazol-3-yl)acetamide]
EC50: < 5000 nM

COc1ccc(NC(=O)CC2C(=O)N(c3ccc(F)cc3)C(=S)N2CCc2ccc(Cl)cc2)nc1 (stereo not shown) [Example 66, 2-{3-[2-(4-chlorophenyl)ethyl]-1-(4-fluorophenyl)-5-oxo-2-sulfanylideneimidazolidin-4-yl}-N-(5-methoxypyridin-2-yl)acetamide]
EC50: < 500 nM

COc1ccc(CCN2C(=S)N(c3ccccc3)C(=O)C2CC(=O)Nc2ccc(C)nn2)cc1 (stereo not shown) [Example 68, 2-{3-[2-(4-methoxyphenyl)ethyl]-5-oxo-1-phenyl-2-sulfanylideneimidazolidin-4-yl}-N-(6-methylpyridazin-3-yl)acetamide]
EC50: < 30000 nM

COc1ccc(CCN2C(=S)N(c3ccccc3)C(=O)C2CC(=O)Nc2ccc(OC)nn2)cc1 (stereo not shown) [Example 69, 2-{3-[2-(4-methoxyphenyl)ethyl]-5-oxo-1-phenyl-2-sulfanylideneimidazolidin-4-yl}-N-(6-methoxypyridazin-3-yl)acetamide]
EC50: < 5000 nM

COc1ccc(CCN2C(=O)N(c3ccc(F)cc3)C(=O)C2CC(=O)Nc2ccc(OC)nn2)cc1 (stereo not shown) [Example 71, 2-[1-(4-fluorophenyl)-3-[2-(4-methoxyphenyl)ethyl]-2,5-dioxoimidazolidin-4-yl]-N-(6-methoxypyridazin-3-yl)acetamide]
EC50: < 30000 nM

COc1ccc(CCN2C(=O)N(c3ccc(F)cc3)C(=O)C2CC(=O)Nc2ccc(OC)cn2)cc1 (stereo not shown) [Example 72, 2-[1-(4-fluorophenyl)-3-[2-(4-methoxyphenyl)ethyl]-2,5-dioxoimidazolidin-4-yl]-N-(5-methoxypyridin-2-yl)acetamide]
EC50: < 5000 nM

COc1ccc(CCN2C(=O)N(c3ccc(F)cc3)C(=O)C2CC(=O)Nc2ccc(N(C)C)cn2)cc1 (stereo not shown) [Example 73, N-[5-(dimethylamino)pyridin-2-yl]-2-[1-(4-fluorophenyl)-3-[2-(4-methoxyphenyl)ethyl]-2,5-dioxoimidazolidin-4-yl]acetamide]
EC50: < 500 nM

COc1ccc(CCN2C(=O)N(c3ccc(F)cc3)C(=O)C2CC(=O)Nc2ccc(C)nn2)cc1 (stereo not shown) [Example 74, 2-[1-(4-fluorophenyl)-3-[2-(4-methoxyphenyl)ethyl]-2,5-dioxoimidazolidin-4-yl]-N-(6-methylpyridazin-3-yl)acetamide]
EC50: < 30000 nM

COc1ncc(NC(=O)CC2C(=O)N(c3ccc(F)cc3)C(=O)N2CCc2ccc(N(C)C)cc2)cn1 (stereo not shown) [Example 78, 2-(3-{2-[4-(dimethylamino)phenyl]ethyl}-1-(4-fluorophenyl)-2,5-dioxoimidazolidin-4-yl)-N-(2-methoxypyrimidin-5-yl)acetamide]
EC50: < 30000 nM

COc1ncc(NC(=O)CC2C(=O)N(c3ccc(F)cc3)C(=S)N2CCc2ccc(N(C)C)cc2)cn1 (stereo not shown) [Example 79, 2-(3-{2-[4-(dimethylamino)phenyl]ethyl}-1-(4-fluorophenyl)-5-oxo-2-sulfanylideneimidazolidin-4-yl)-N-(2-methoxypyrimidin-5-yl)acetamide]
EC50: < 5000 nM

COc1ccc(CCN2C(=S)N(c3ccc(F)cc3)C(=O)C2CC(=O)Nc2cnc(OC)nc2)cc1 (stereo not shown) [Example 82, 2-[1-(4-fluorophenyl)-3-[2-(4-methoxyphenyl)ethyl]-5-oxo-2-sulfanylideneimidazolidin-4-yl]-N-(2-methoxypyrimidin-5-yl)acetamide]
EC50: < 5000 nM

COc1ccc(CCN2C(=S)N(c3ccc(F)cc3)C(=O)C2CC(=O)Nc2ccc(OC)cn2)cc1 (stereo not shown) [Example 83, 2-[1-(4-fluorophenyl)-3-[2-(4-methoxyphenyl)ethyl]-5-oxo-2-sulfanylideneimidazolidin-4-yl]-N-(5-methoxypyridin-2-yl)acetamide]
EC50: < 500 nM

COc1ccc(CCN2C(=S)N(c3ccc(F)cc3)C(=O)C2CC(=O)Nc2ncc(OC)cn2)cc1 (stereo not shown) [Example 84, 2-[1-(4-fluorophenyl)-3-[2-(4-methoxyphenyl)ethyl]-5-oxo-2-sulfanylideneimidazolidin-4-yl]-N-(5-methoxypyrimidin-2-yl)acetamide]
EC50: < 500 nM

COc1ccc(CCN2C(=S)N(c3ccc(F)cc3)C(=O)C2CC(=O)Nc2ccc(OC)cc2F)cc1 (stereo not shown) [Example 85, N-(2-fluoro-4-methoxyphenyl)-2-[1-(4-fluorophenyl)-3-[2-(4-methoxyphenyl)ethyl]-5-oxo-2-sulfanylideneimidazolidin-4-yl]acetamide]
EC50: < 500 nM

COc1ccc(CCN2C(=S)N(c3ccc(F)cc3)C(=O)C2CC(=O)Oc2ccc(OC)cc2)cc1 (stereo not shown) [Example 86, 4-methoxyphenyl 2-[1-(4-fluorophenyl)-3-[2-(4-methoxyphenyl)ethyl]-5-oxo-2-sulfanylideneimidazolidin-4-yl]acetate]
EC50: < 30000 nM
